The results in this text go back to patent US20060160773A1, “Combretastatin derivatives with cytotoxic action” (priority 2003, published 2006).

Structures are written as SMILES. Bounds are passed on as bounds.

In this assay the test system is Bovine microcirculatory endothelial cells (BMEC). The assay can be described thus: Cytotoxicity test (sulforodamine B), BMEC. It counts as cell-based. The conditions noted are these: Bos taurus, Endothelial cell, read-out: IC50 ± SE. The procedure: The cytotoxic effect of our derivatives was evaluated in series of human and murine cell lines.
Bovine microcirculatory endothelial cells (BMEC), isolated from bovine adrenal glands, were maintained in culture in DMEM containing 20% FBS, 50 μg/ml of bovine brain extract (BBE), 50 units/ml of heparin (SIGMA), 100 units/ml of gentami-cin (SIGMA) and 10 mg/ml of L-glutamine (Hyclone). EA-hy926, an immortalised hybridoma of HUVEC and adenocarcinoma cells, obtained from the University of Bari Department of Biomedical Sciences and Human Oncology, was cultured in DMEM added with 10% FBS and gentamicin.
For the cytotoxicity test the cells were seeded at variable densities according to cell type in 96-well plates in normal culture medium (200 μl/well) and incubated for 24 hours at 37° C. On the next day, the study substances were added at scalar concentrations and the cells were incubated for a further 24 hours at 37° C. in a humidified atmosphere containing 5% CO2. At the end of the incubation period the medium containing the substances was removed and three washings with PBS were performed. At the end of the washings 200 μl/well of fresh medium were added and the plates were incubated at 37° C. for a further 48 hours. At the end of this incubation period the culture medium was removed by overturning the plates and 200 μl/well of PBS and 50 μl of 80% cold trichloroacetic acid (TCA) were added. The plates were then incubated in ice. After 1 h the TCA was removed, the plates were washed three times by immersion in distilled water and dried first on blotting paper and then in the oven. 200 μl of 0.4% sulforodamine B in 1% acetic acid were then added to all wells. The plates were incubated at room temperature for a further 30 minutes. The sulforodamine B was removed by overturning, the plates were washed three times by immersion in 1% acetic acid, and then dried first on blotting paper and then in the oven. 200 μl of Tris base 10 mM were then added to all wells and the plates were placed under stirring for at least 20 min. The optical density was measured by spectrophotometric readout at 540 nm.
In the same table are reported the IC50 of ST2897, ST2898 and ST2899 on BMEC.
The term IC50 denotes the midpoint of a concentration-inhibition curve. With `COc1ccc(/C=C\c2cc(OC)c3ccoc3c2)cc1O` [ST2897, Cis-2-Methoxy-5-[2-(4-methoxy-benzofuran-6-yl)-vinyl]-phenol], the IC50 worked out at 35 ± 1.8 nM.
The value for `COc1ccc(/C=C\c2cc(OC)c3ccsc3c2)cc1O` [ST2899, Cis-2-Methoxy-5-[2-(4-methoxy-benzo[b]thiophen-6-yl)-vinyl]-phenol] was less than 40 nM; that for `COc1ccc(/C=C\c2cc(OC)c3occc3c2)cc1O` [ST2898, Cis-2-Methoxy-5-[2-(7-methoxy-benzofuran-5-yl)-vinyl]-phenol] was 35 ± 0.3 nM.
